Source: paper PMC4005661 (2014)

Tested on: c-myc (DNA, G4) TGAGGGTGGGTAGGGTGGGTAA
Test: fluorescence light-up, plate reader
Settings: 50 mM K+ (KCl); 50 mM Tris/HCl pH 7.5, room temperature; 1 µM strand, 0.5 µM ThT

Structure (SMILES): Cc1ccc2c(c1)sc(-c1ccc(N(C)C)cc1)[n+]2C
- fluorescence fold increase: 14 fold
